# Source: publication PMC7567334 (Environmental Health Perspectives, 2020)
# pEC50, pIC50: −log10 of the molar value. Values joined by “and” are separate entries in the source; they are usually repeats but may differ in a detail not shown here. Equal entries are not always repeated. Where two headings read alike, the source gives them in different places.
# Key:
# Glucocorticoid receptor = conditions: MDA-kb2 at 5 μM; ref Kolšek et al. 2014a; cited from earlier work
# GR [1] = molecular target: T1, GR (Homo sapiens, UniProt P04150); experiment: PolarScreen GR Competitor binding affinity assay; set-up: purchased Invitrogen; conditions: for binding affinity assay on isolated GR, result: in words, tested up to 10 μM
# T1 sequence (P04150 1-777): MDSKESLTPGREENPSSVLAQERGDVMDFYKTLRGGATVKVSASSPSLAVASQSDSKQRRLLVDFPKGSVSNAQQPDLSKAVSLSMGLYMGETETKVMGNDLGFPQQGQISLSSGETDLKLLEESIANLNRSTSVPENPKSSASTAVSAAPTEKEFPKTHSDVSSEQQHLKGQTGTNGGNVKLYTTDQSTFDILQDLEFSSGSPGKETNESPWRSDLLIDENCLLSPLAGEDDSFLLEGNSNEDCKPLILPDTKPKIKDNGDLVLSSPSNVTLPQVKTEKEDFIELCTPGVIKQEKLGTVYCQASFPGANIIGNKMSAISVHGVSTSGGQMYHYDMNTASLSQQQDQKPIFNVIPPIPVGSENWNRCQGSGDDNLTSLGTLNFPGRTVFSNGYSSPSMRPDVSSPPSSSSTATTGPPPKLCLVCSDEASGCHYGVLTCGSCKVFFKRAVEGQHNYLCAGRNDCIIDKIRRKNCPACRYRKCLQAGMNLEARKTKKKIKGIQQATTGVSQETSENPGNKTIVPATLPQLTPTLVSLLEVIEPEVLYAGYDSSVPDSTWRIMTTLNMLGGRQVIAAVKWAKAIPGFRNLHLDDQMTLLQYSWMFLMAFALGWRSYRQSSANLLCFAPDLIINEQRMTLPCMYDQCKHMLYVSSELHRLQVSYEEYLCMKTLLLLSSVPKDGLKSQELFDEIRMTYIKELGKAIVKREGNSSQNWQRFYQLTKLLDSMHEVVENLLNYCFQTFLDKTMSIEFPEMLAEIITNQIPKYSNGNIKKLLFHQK
# TRα and TRβ [2] = experiment: GH3.TRE-Luc TR reporter assay, antagonist setup (0.25 nM T3); assay type: cell-based, rat
# Thyroid receptor = conditions: ZFL cell line; ref Zhou et al. 2017; cited from earlier work
# GR [3] = molecular target: T1, GR; experiment: MDA-kb2 GR reporter assay, agonist setup (with FLU); assay type: cell-based; set-up: constitutively expressed high levels of functional GR and AR; host or cells: MDA-kb2; conditions: 10 μM; vs 0.1% DMSO with 5 μM FLU
# [4] = ref Sandborgh-Englund et al. 2006, cited from earlier work
# TRα and TRβ [5] = experiment: GH3.TRE-Luc TR reporter assay, agonist setup; assay type: cell-based, rat; conditions: vs 0.1% DMSO
# GR [6] = molecular target: T1, GR; experiment: MDA-kb2 GR reporter assay, antagonist setup (500 nM HC); assay type: cell-based; set-up: constitutively expressed high levels of functional GR and AR; host or cells: MDA-kb2
# stickleback AR = tested on: stickleback AR; set-up: method as in Lange et al. 2015; conditions: at 10 μM; ref Lange et al. 2015; cited from earlier work
# firefly luciferase = molecular target: T2, firefly luciferase (Photinus pyralis, UniProt P08659); experiment: Luciferase inhibition assay in GH3.TRE-Luc cell lysates; assay type: biochemical; conditions: cell lysate; for inhibition at 50 µM: read-out: inhibition of firefly luciferase luminescence signal
# T2 construct: Only implied by 'CP' in the vector name, from my own knowledge; expressed in transfected cells; host or cells: GH3.TRE-Luc cells induced with 0.25 nM T3, lysate
# T2 sequence (P08659 whole entry): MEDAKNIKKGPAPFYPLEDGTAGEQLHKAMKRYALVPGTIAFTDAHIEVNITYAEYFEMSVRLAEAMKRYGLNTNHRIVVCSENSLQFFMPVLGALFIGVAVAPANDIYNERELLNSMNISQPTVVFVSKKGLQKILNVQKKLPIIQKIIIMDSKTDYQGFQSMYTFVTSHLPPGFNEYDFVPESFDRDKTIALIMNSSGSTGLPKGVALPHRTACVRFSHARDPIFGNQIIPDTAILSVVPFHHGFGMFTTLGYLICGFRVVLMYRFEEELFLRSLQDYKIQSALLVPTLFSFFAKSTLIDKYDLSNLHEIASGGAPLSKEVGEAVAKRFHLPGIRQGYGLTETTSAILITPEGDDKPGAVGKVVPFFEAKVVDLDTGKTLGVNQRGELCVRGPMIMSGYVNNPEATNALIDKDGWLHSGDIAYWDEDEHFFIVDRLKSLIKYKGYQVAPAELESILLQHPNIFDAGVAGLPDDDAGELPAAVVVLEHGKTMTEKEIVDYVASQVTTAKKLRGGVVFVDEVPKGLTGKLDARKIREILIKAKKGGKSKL
# Description: Serial dilutions for each treatment were prepared in the cell lysate and incubated at room temperature for 30 min.
# Androgen receptor [7] = conditions: ref Rostkowski et al. 2011, cited from earlier work
# hERα-HeLa-9903 cells = experiment: Cell viability (resazurin) in hERα-HeLa-9903 cells; conditions: hERα-HeLa-9903, ERα agonist dose-response
# Androgen receptor [8] = conditions: ref Rostkowski et al. 2011, cited from earlier work; remark: listed apart in the source
# human (h)AR = molecular target: T3, human (h)AR (Homo sapiens, UniProt P10275); experiment: AR-EcoScreen hAR transcriptional activation assay, antagonist setup (500 pM DHT); assay type: cell-based
# T3 sequence (P10275 1-920): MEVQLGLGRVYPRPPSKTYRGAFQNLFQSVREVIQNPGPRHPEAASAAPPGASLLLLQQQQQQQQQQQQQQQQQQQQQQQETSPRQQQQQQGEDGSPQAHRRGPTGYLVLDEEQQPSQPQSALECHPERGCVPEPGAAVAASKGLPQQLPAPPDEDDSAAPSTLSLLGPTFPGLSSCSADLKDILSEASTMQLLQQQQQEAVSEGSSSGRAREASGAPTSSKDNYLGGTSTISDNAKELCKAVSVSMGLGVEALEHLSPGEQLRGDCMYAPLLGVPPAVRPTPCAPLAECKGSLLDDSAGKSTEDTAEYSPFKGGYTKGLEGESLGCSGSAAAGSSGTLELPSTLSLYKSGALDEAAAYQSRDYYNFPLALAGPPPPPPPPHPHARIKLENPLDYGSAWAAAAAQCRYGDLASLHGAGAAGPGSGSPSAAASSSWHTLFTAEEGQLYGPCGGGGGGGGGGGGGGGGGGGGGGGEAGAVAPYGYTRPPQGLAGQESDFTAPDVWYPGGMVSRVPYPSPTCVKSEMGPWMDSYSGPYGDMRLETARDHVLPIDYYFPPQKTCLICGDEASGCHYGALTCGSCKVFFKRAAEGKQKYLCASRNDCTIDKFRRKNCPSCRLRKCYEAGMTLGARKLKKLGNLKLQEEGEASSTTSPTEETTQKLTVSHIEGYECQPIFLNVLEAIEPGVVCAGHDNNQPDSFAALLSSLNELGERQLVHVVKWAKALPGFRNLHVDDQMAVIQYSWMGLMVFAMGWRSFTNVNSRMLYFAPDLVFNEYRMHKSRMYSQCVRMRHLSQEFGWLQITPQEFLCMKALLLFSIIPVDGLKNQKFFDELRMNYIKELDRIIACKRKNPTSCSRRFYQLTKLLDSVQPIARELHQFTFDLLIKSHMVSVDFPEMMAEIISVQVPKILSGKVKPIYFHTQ
# AR = molecular target: T4, AR (Rattus norvegicus, UniProt P15207); experiment: PolarScreen AR Competitor binding affinity assay
# T4 construct: purchased Invitrogen
# T4 sequence (P15207 651-902 limits assumed): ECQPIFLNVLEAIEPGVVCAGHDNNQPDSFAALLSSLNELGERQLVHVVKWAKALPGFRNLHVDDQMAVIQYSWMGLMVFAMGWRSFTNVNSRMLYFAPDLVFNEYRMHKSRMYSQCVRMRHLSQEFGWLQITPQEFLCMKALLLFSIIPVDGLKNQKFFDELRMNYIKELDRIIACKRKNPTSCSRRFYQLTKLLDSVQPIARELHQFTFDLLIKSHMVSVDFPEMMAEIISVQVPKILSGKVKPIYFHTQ
# AroB transcription = conditions: 1 nM E2 alone; zebrafish embryos; ref Chung et al. 2011; cited from earlier work
# AR-EcoScreen cells = experiment: Cell viability (resazurin) in AR-EcoScreen cells; conditions: agonist assay
# Estrogen receptor-α = conditions: YES/YAS tests; ref Westlund and Yargeau 2017; cited from earlier work
# human (h) ERα = molecular target: T5, human (h) ERα (Homo sapiens, UniProt P03372); experiment: hERα-HeLa-9903 transactivation assay, agonist setup; assay type: cell-based; set-up: host or cells: hERα-HeLa-9903 (HeLa derived); conditions: for higher ERα RTA than vehicle control: vs 0.1% DMSO
# T5 sequence (P03372 1-595): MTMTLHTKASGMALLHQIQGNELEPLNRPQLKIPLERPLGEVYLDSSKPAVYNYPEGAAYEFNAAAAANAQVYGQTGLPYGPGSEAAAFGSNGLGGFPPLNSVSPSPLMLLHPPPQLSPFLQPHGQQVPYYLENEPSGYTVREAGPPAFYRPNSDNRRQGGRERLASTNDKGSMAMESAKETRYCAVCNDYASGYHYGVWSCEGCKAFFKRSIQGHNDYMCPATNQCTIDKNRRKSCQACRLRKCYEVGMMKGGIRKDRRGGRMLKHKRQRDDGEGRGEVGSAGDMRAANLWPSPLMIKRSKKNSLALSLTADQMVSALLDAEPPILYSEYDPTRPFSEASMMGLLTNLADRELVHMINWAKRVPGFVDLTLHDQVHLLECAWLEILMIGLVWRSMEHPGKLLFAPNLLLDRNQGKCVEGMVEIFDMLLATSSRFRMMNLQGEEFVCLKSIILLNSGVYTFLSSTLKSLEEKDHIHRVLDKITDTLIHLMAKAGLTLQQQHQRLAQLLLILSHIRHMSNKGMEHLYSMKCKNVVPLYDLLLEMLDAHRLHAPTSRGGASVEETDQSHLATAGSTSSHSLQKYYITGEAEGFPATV
# [9] = 0.25 nM T3; read-out: TR antagonist IC50
smiles,measurement,setting,value
"Oc1cc(Cl)ccc1Oc1ccc(Cl)cc1Cl [Triclosan, 5-Chloro-2-(2,4-dichlorophenoxy) phenol]",effect on GR,Glucocorticoid receptor,No effect in MDA-kb2 at 5μM ([Kolšek et al. 2014a])
same,pEC50,GR [1],4.56
same,"binding affinity assay on isolated GR, result",GR [1],positive
same,pIC50,TRα and TRβ [2]; [9],5.44
same,lower TR RTA than spike-in control,TRα and TRβ [2]; 5 μM; vs 0.1% DMSO with 0.25 nM T3,71.9%
same,"TR antagonist activity, call",TRα and TRβ [2]; GH3.TRE-Luc,Antagonist
same,concentration with TR antagonist activity,TRα and TRβ [2]; GH3.TRE-Luc,5 µM
same,effect on TR,Thyroid receptor,No effect in ZFL cell line ([Zhou et al. 2017])
same,lower GR RTA than vehicle control (agonist assay),GR [3],53.6%
same,peak plasma concentration,"[4]; 10 healthy volunteers, single dose of mouthwash",0.5 to 1.2 µM
same,preexperiment median plasma baseline concentration,[4]; 10 healthy volunteers,5.5 nM
same,time of plasma peak after exposure,[4],up to 3 h
same,baseline TR-mediated transcriptional activity lower than vehicle control (agonist setup),TRα and TRβ [5]; 10 μM,> 50%
same,lower GR RTA than spike-in control,"GR [6]; 10 μM, vs 0.1% DMSO with 500 nM HC",53.2%
same,"GR antagonist activity, call",GR [6]; MDA-kb2,Antagonist
same,effect on stickleback AR,stickleback AR,Antagonist at 10μM in stickleback AR reporter assay ([Lange et al. 2015])
same,inhibition at 50 µM,firefly luciferase,~12%
"Oc1ccc(Cl)cc1Cc1ccccc1 [Chlorophene, 2-Benzyl-4-chlorophenol]",pIC50,"Androgen receptor [7]; antiandrogenic, read-out: anti-YAS IC50",6.27
same,"effect on AR, yeast based assay",Androgen receptor [7],Antagonist ([Rostkowski et al. 2011])
same,highest tested concentration as limited by precipitation and cytotoxicity,hERα-HeLa-9903 cells,50 µM
same,"binding affinity assay on isolated GR, result",GR [1],positive
same,pEC50,"GR [1]; read-out: binding to isolated GR, EC50",4.98
same,"TR antagonist activity, call",TRα and TRβ [2]; GH3.TRE-Luc,Antagonist
same,concentration with TR antagonist activity,TRα and TRβ [2]; GH3.TRE-Luc,10 µM
same,pIC50,"Androgen receptor [8]; antiandrogenic, read-out: AR-CALUX IC50",6.10
same,effect on AR in AR-CALUX assay,Androgen receptor [8],Antagonist in AR-CALUX assay ([Rostkowski et al. 2011])
same,"GR activity in MDA-kb2 cell line, call",GR [6]; 10 μM,Negative
same,effect on stickleback AR,stickleback AR,Antagonist at 10μM in a stickleback AR reporter assay ([Lange et al. 2015])
same,lower AR RTA than spike-in control,"human (h)AR; 10 μM, vs 0.1% DMSO with 500 pM DHT",> 90%
same,pIC50,"human (h)AR; AR antagonist IC50, AR-EcoScreen, 500 pM DHT",5.63 and 5.62
same,"AR antagonist activity, call",human (h)AR; AR-EcoScreen,Antagonist
same,pEC50,AR,5.67
same,"binding affinity assay on isolated AR, result","AR; in words, tested up to 10 μM",positive
same,inhibition at 50 µM,firefly luciferase,~12%
"CC(C)(c1ccc(O)cc1)c1ccc(O)cc1 [BPA, bisphenol A, reference compound]",pIC50,TRα and TRβ [2]; read-out: TR antagonist IC50; 0.25 nM T3,4.38
"C[C@]12CC[C@@H]3c4ccc(O)cc4CC[C@H]3[C@@H]1CC[C@@H]2O [E2, 17β-estradiol, reference compound]",increase in AroB transcription,AroB transcription,8 fold
"Oc1c(Br)cc(Cl)cc1Cc1cc(Cl)cc(Br)c1O [Bromochlorophene, 2,2’-methylenebis(6-bromo-4-chlorophenol)]",pIC50,TRα and TRβ [2]; [9],6.30 and 6.29
same,lower TR RTA than spike-in control,TRα and TRβ [2]; 10 μM; vs 0.1% DMSO with 0.25 nM T3,92.9%
same,"TR antagonist activity, call",TRα and TRβ [2]; GH3.TRE-Luc,Antagonist
same,highest noncytotoxic concentration,AR-EcoScreen cells,2.5 µM
same,baseline TR-mediated transcriptional activity lower than vehicle control (agonist setup),TRα and TRβ [5]; 1 μM,> 50%
same,baseline TR-mediated transcriptional activity lower than vehicle control (agonist setup),TRα and TRβ [5]; 10 μM,> 50%
same,inhibition of firefly luciferase luminescence signal,firefly luciferase; 50 μM,26.1%
"CC(C)(C)C(=O)C(Oc1ccc(Cl)cc1)n1ccnc1 (stereo not drawn) [Climbazole, 1-(4-Chlorophenoxy)-1-(imidazol-1-yl)-3,3-dimethylbutan-2-one]","TR antagonist activity, call",TRα and TRβ [2]; GH3.TRE-Luc,Antagonist
same,concentration with TR antagonist activity,TRα and TRβ [2]; GH3.TRE-Luc,10 µM
same,"effect on ER, yeast based assay",Estrogen receptor-α,No effect ([Westlund and Yargeau 2017])
same,higher ERα RTA than vehicle control,human (h) ERα; 10 μM,> 30.0% and 36.6%
same,higher ERα RTA than vehicle control,human (h) ERα; 100 μM,94%
same,"ERα agonist activity, call",human (h) ERα; hERα-HeLa-9903,Agonist
same,concentration with ERα agonist activity,human (h) ERα; hERα-HeLa-9903,10 to 100 µM
same,inhibition at 50 µM,firefly luciferase,~12%
